In patent publication US20250228835A1, “PYRIDINYLOXYPYRIDINES AND RELATED COMPOUNDS AND THEIR USE IN TREATING MEDICAL CONDITIONS” (Rectify Pharmaceuticals, Inc., priority 2024, published 2025):
Where two headings read alike, the source gives them in different places.

Experiments:
Type in all cases: cell-based
ABCC6 WT = biological target: T1, ABCC6 WT (Homo sapiens, UniProt O95255); assay: ABCC6 WT assay: HiBit protein expression; settings: HEK-293 cells transiently expressing HiBit-tagged ABCC6 WT; 24 h treatment; top concentration 20 μM; read-out: ABCC6 WT EC50, Emax
T1 construct: expressed in transfected cells; host or cells: HEK-293 (transient, Lipofectamine 2000)
T1 sequence (O95255 whole entry): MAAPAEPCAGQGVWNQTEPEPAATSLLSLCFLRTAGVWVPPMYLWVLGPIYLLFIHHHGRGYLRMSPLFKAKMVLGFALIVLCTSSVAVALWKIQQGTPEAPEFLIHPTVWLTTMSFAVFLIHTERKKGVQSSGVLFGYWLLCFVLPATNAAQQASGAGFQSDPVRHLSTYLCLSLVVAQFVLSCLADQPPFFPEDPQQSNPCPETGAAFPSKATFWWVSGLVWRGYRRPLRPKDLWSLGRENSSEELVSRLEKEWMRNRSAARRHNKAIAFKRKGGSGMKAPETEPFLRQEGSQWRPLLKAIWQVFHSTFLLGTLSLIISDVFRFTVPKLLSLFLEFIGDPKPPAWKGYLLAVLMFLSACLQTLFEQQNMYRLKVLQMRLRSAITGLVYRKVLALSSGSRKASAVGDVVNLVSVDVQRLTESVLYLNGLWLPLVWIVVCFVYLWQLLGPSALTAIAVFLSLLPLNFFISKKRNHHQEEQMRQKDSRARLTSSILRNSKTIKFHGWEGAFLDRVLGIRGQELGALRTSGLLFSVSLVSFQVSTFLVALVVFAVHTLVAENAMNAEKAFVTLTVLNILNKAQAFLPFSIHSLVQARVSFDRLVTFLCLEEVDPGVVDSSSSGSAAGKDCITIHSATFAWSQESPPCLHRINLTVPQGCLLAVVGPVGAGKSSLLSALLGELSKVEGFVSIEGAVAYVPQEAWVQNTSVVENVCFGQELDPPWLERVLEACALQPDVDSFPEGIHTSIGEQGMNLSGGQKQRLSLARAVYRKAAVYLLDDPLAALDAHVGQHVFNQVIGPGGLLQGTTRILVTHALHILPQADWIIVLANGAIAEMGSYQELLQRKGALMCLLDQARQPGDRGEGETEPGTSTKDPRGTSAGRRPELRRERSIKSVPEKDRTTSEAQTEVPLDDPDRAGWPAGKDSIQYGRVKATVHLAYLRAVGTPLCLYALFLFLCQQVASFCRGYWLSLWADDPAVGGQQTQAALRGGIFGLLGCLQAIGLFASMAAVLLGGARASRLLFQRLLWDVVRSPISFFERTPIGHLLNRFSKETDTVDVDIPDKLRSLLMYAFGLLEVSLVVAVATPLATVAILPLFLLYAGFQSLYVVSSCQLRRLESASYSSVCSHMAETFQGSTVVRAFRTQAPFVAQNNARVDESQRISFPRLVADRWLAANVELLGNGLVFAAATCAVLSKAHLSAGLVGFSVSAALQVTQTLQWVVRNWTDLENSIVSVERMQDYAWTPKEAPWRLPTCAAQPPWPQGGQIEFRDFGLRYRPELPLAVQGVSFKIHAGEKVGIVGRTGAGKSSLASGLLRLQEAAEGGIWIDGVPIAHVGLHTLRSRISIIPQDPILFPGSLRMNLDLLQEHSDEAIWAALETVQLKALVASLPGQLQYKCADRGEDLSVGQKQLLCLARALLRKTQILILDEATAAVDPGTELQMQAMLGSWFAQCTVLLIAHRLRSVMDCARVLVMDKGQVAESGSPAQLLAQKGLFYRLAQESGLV
Summary of the method: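 HEK-293 cells transiently transfected with HiBit-tagged human ABCC6 WT cDNA, seeded 24 h post-transfection, treated 24 h at 37° C with ten 2-fold doses (top 20 μM final, 0.15% DMSO). HiBit lytic luminescence reports protein expression; Emax and EC50 derived.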

ABCB4 WT = biological target: T2, ABCB4 WT (Homo sapiens, UniProt P21439); assay: ABCB4 WT assay: HiBit protein expression; settings: HEK-293 cells stably expressing HiBit-tagged ABCB4 WT; 24 h treatment; top concentration 30 μM; read-out: ABCB4 WT EC50, Emax
T2 construct: expressed in transfected cells
T2 sequence (P21439 whole entry): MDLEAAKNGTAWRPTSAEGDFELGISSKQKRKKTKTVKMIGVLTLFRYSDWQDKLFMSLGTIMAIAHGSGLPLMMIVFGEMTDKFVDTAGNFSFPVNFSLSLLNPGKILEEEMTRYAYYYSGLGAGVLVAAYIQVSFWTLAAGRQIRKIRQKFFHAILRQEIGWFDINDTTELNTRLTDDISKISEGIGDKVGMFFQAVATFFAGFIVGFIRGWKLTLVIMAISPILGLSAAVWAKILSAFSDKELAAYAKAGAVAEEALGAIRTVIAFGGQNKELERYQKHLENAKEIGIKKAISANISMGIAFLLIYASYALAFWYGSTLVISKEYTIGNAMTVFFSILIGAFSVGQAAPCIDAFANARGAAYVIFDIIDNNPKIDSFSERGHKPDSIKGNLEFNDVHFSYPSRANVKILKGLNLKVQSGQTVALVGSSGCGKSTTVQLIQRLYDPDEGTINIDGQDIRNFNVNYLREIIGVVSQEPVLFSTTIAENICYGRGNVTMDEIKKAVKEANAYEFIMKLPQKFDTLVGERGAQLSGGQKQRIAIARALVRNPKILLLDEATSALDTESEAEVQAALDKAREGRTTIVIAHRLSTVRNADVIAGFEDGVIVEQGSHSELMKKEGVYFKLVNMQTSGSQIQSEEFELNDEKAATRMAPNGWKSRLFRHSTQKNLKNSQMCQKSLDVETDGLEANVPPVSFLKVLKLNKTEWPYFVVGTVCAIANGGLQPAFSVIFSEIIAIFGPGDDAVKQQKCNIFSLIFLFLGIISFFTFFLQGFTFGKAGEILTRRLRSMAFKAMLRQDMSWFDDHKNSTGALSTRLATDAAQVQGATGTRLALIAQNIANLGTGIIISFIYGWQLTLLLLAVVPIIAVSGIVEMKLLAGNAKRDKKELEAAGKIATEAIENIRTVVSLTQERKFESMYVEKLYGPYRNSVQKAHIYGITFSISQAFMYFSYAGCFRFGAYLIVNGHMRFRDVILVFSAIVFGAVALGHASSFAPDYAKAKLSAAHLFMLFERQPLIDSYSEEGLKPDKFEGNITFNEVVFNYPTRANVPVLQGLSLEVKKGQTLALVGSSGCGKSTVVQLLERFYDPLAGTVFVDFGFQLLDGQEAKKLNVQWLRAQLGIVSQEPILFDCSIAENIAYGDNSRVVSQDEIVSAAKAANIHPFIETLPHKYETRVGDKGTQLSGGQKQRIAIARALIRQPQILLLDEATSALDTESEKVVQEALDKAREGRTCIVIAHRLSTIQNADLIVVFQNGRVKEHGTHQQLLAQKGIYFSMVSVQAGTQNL
Summary of the method: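 HEK-293 cells stably expressing HiBit-tagged human ABCB4 WT, treated 24 h at 37 °C with 11-dose 3-fold dilutions, top final 30 μM in 0.3% DMSO. HiBit lytic reagent luminescence read after 1 h at 25 °C; Emax and EC50 derived.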

ABCA4 P1380L = biological target: T3, ABCA4 P1380L (Homo sapiens, UniProt P78363, P1380L); assay: A4 correction dose-response assay: ABCA4 P1380L HiBit protein expression; settings: HEK-293 cells stably expressing HiBit-tagged ABCA4 P1380L, 24 h treatment, top concentration 30 μM
T3 construct: expressed in transfected cells
T3 sequence (P78363 whole entry P1380L): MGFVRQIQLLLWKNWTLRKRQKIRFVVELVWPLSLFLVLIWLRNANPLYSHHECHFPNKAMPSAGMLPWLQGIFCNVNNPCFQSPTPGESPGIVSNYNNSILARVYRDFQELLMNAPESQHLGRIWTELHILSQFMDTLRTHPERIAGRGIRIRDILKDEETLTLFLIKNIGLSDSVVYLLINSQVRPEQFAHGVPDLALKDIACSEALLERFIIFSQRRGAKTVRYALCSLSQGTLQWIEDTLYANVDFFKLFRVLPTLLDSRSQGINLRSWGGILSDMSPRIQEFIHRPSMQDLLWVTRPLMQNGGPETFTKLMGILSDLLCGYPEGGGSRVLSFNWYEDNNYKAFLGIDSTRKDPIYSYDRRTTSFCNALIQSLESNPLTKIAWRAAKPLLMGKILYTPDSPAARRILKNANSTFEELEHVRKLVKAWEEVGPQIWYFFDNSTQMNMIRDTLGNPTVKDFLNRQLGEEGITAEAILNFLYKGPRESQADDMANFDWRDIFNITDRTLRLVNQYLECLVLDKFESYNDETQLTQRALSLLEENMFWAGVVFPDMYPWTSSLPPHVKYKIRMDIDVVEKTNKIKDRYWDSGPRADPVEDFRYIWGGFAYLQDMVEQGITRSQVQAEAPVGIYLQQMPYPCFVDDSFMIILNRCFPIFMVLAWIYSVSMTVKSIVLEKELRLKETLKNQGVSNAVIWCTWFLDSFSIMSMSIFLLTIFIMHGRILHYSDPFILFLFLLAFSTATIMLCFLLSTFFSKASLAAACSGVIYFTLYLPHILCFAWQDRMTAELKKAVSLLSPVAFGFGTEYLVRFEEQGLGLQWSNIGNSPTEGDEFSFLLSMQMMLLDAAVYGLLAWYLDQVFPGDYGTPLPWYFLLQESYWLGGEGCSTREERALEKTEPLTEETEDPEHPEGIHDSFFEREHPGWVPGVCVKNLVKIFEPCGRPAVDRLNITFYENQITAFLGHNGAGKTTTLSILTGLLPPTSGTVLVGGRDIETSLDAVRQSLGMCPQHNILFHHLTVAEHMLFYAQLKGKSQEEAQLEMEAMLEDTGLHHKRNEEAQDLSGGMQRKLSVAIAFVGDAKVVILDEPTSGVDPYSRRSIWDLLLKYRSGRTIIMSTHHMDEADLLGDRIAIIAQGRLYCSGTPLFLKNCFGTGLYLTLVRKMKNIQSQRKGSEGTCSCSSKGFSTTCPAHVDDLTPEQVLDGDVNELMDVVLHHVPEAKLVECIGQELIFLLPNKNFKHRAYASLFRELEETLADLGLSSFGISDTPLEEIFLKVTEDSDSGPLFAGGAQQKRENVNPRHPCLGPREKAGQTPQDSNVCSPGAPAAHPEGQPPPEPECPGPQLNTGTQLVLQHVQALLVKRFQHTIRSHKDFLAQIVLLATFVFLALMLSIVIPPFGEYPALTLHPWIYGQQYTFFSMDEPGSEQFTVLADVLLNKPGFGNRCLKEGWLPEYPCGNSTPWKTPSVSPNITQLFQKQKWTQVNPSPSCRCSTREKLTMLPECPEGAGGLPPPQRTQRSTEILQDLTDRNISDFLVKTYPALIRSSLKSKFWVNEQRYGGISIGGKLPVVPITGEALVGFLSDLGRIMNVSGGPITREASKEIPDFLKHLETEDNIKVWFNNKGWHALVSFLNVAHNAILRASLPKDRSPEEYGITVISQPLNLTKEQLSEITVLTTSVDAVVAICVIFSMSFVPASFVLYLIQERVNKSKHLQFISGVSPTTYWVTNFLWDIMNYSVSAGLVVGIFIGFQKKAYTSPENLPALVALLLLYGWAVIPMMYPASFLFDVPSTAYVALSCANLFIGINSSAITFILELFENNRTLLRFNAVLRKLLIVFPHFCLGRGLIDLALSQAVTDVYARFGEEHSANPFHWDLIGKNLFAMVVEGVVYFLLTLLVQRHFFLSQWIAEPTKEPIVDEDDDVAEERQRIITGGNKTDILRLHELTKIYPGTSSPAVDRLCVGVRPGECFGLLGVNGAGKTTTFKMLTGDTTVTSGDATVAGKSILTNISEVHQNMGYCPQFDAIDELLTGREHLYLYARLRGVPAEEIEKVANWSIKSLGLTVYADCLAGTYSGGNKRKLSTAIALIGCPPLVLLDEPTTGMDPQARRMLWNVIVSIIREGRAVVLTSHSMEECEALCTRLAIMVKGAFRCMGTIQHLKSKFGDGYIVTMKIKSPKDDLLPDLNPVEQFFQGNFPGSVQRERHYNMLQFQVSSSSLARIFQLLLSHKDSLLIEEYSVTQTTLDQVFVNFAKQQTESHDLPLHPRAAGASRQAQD
Summary of the method: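 Cells transfected with HiBit-tagged human ABCA4 P1380L cDNA were treated for 24 h at 37°C with an eleven-point dilution series (top final 30 μM, 0.3% DMSO).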

[1] = read-out: ABCA4 P1380L EC50, Emax

Row | Compound | EC50 (ABCC6 WT) [µM] | EC50 (ABCB4 WT) [µM] | EC50 (ABCA4 P1380L; [1]) [µM] | EC50 (ABCA4 P1380L; ABCA4 P1380L EC50, Emax) [µM]
1 | Cc1cc(C)c(Oc2nc(N3CC4CC3CN4C(=O)C3CC3)ccc2NS(C)(=O)=O)c(C)c1 (single isomer, unassigned) [Compound I-18] | 1 to 10 | ≥ 25 | 10 to 25 | 
2 | Cc1cc(C)c(Oc2nc(N3CC4CC3CN4C(=O)C3CC3)ccc2NS(C)(=O)=O)c(C)c1 (single isomer, unassigned) [Compound I-19] | ≥ 25 | ≥ 25 | > 25 | 
3 | Cc1cc(C)c(Oc2nc(N3CCC(C#N)C3)ccc2NS(C)(=O)=O)c(C)c1 (single isomer, unassigned) [Compound I-261] | 1 to 10 | 1 to 10 | 10 to 25 | 
4 | Cc1cc(C)c(Oc2nc(N3CCC(C#N)C3)ccc2NS(C)(=O)=O)c(C)c1 (single isomer, unassigned) [Compound I-262] | 1 to 10 | 1 to 10 | 1 to 10 | 
5 | Cc1cc(C)c(Oc2nc(N3CCN(C(=O)C4CC4)CC3)ccc2NS(C)(=O)=O)c(C2CC2)n1 [Compound I-20] | 1 to 10 | ≥ 25 | > 25 | 
6 | Cc1cc(C)c(Oc2nc(N3CCn4c(C)nnc4C3)ccc2NS(C)(=O)=O)c(C)c1 [Compound I-21] | 1 to 10 | < 25 | > 25 | 
7 | Cc1cc(C)c(Oc2nc(N3CC4CC(C3)N4C(=O)C3CC3)ccc2NS(C)(=O)=O)c(C)c1 [Compound I-22] | 1 to 10 | 1 to 10 | 1 to 10 | 
8 | Cc1cc(C)c(Oc2nc(N3CCN(C(=O)C4COC4)CC3)ccc2NS(C)(=O)=O)c(C)c1 [Compound I-23] | 10 to 25 | 10 to 25 | 10 to 25 | 
9 | Cc1cc(C)c(Oc2nc(N3CCN(C(=O)C4CCC4)CC3)ccc2NS(C)(=O)=O)c(C)c1 [Compound I-24] | < 1 | < 1 | 1 to 10 | 
10 | Cc1cc(C)c(Oc2nc(N3CCC4(CN(C(=O)C5CC5)C4)C3)ccc2NS(C)(=O)=O)c(C)c1 [Compound I-25] | 1 to 10 | 1 to 10 | > 25 | 
11 | Cc1cc(C)c(Oc2nc(N3CCN(S(C)(=O)=O)CC3)ccc2NS(C)(=O)=O)c(C)c1 [Compound I-26] | ≥ 25 | 1 to 10 | > 25 | 
12 | CNC(=O)N1CCN(c2ccc(NS(C)(=O)=O)c(Oc3c(C)cc(C)cc3C)n2)CC1 [Compound I-27] | 10 to 25 | 10 to 25 | 1 to 10 | 
13 | Cc1cc(C2CC2)nc(C)c1Oc1nc(N2CCN(C(=O)C3CC3)CC2)ccc1NS(C)(=O)=O [Compound I-28] | ≥ 25 | 1 to 10 | 1 to 10 | 
14 | Cc1cc(C)c(Oc2nc(-c3cncc(Cl)c3)ccc2NS(=O)(=O)C(C)C)c(C)c1 [Compound I-29] | < 1 | ≥ 25 | > 25 | 
15 | Cc1cc(C)c(Oc2nc(N3CCn4c(cnc4C)C3)ccc2NS(C)(=O)=O)c(C)c1 [Compound I-30] | 1 to 10 | 1 to 10 | < 1 | 
16 | Cc1cc(C)c(Oc2nc(N3CC4(CCN(C(=O)C5CC5)C4)C3)ccc2NS(C)(=O)=O)c(C)c1 [Compound I-31] | 1 to 10 | ≥ 25 | > 25 | 
17 | Cc1cc(C)c(Oc2nc(N3CCN(C(=O)OC(C)C)CC3)ccc2NS(C)(=O)=O)c(C)c1 [Compound I-32] | 1 to 10 | ≥ 25 | 1 to 10 | 
18 | Cc1cc(C)c(Oc2nc(N3CCN(C(=O)N(C)C)CC3)ccc2NS(C)(=O)=O)c(C)c1 [Compound I-33] | 1 to 10 | 10 to 25 | > 25 | 
19 | Cc1cc(C)c(Oc2nc(N3CCN(C(=O)C(C)(C)C)CC3)ccc2NS(C)(=O)=O)c(C)c1 [Compound I-34] | 1 to 10 | 1 to 10 | 10 to 25 | 
20 | Cc1cc(C)c(Oc2nc(N3C4CC3CN(C(=O)C3CC3)C4)ccc2NS(C)(=O)=O)c(C)c1 [Compound I-35] | ≥ 25 | ≥ 25 | > 25 | 
21 | Cc1cc(C)c(Oc2nc(-c3cnc(C#N)c(Cl)c3)ccc2NS(C)(=O)=O)c(C)c1 [Compound I-36] | < 1 | ≥ 25 | < 1 | 
22 | Cc1cc(C2CC2)nc(C)c1Oc1nc(-c2cncc(Cl)c2)ccc1NS(C)(=O)=O [Compound I-37] | < 1 | < 1 | < 1 | 
23 | Cc1cc(C)c(Oc2nc(N3CC4(CN(C(=O)C5CC5)C4)C3)ccc2NS(C)(=O)=O)c(C)c1 [Compound I-38] | ≥ 25 | ≥ 25 | > 25 | 
24 | Cc1cc(C)c(Oc2nc(-c3cncc(C#N)c3)ccc2NS(C)(=O)=O)c(C)c1 [Compound I-39] | < 1 | < 1 | < 1 | 

Row | Compound | EC50 (ABCC6 WT) [µM] | EC50 (ABCB4 WT) [µM] | EC50 (ABCA4 P1380L; [1]) [µM] | EC50 (ABCA4 P1380L; ABCA4 P1380L EC50, Emax) [µM]
25 | Cc1cc(C)c(Oc2nc(-c3cncc(Cl)c3)ccc2NS(C)(=O)=O)c(C2CC2)n1 [Compound I-40] | < 1 | < 1 | < 1 | 
26 | Cc1cc(C)c(Oc2nc(-c3cncc(Cl)c3)ccc2NS(=O)(=O)C2COC2)c(C)c1 [Compound I-41] | < 1 | ≥ 25 | < 1 | 
27 | Cc1cc(C)c(Oc2nc(-c3cncc(Cl)c3)ccc2NS(=O)(=O)C2CC2)c(C)n1 [Compound I-238] | < 1 | < 25 | 1 to 10 | 
28 | Cc1cc(C)c(Oc2nc(-c3ccnc(C#N)c3)ccc2NS(C)(=O)=O)c(C)n1 [Compound I-239] | < 1 | < 25 | < 1 | 
29 | Cc1cc(C(F)(F)F)nc(C)c1Oc1nc(-c2cncc(C#N)c2)ccc1NS(C)(=O)=O [Compound I-240] | < 1 | < 1 | < 25 | 
30 | Cc1cc(C)c(Oc2nc(-c3cccc(C#N)n3)ccc2NS(C)(=O)=O)c(C)n1 [Compound I-241] | 10 to 25 | 10 to 25 | > 25 | 
31 | CCCS(=O)(=O)Nc1ccc(-c2cncc(C#N)c2)nc1Oc1c(C)cc(C)nc1C [Compound I-242] | < 1 | 1 to 10 | 1 to 10 | 
32 | Cc1cc(C)c(Oc2nc(-c3cncc(C#N)c3)ccc2NS(=O)(=O)C2CCC2)c(C)n1 [Compound I-243] | < 1 | < 1 | < 1 | 
33 | Cc1cc(C)c(Oc2nc(N3CCC(C#N)CC3)ccc2NS(C)(=O)=O)c(C)c1 [Compound I-244] | 1 to 10 | ≥ 25 | 10 to 25 | 
34 | Cc1cc(C)c(Oc2nc(-c3cncc(C#N)c3)ccc2S(=N)(=O)C2CC2)c(C)c1 (stereo not drawn) [Compound I-245] | < 1 | 1 to 10 | 1 to 10 | 
35 | Cc1cc(C)c(Oc2nc(-c3cncc(Cl)c3)ncc2NS(C)(=O)=O)c(C)n1 [Compound I-246] | < 1 | < 25 | < 1 | 
36 | CCS(=O)(=O)Nc1ccc(-c2cncc(C#N)c2)nc1Oc1c(C)cc(C)nc1C [Compound I-247] | < 1 | < 1 | < 1 | 
37 | Cc1cc(C)c(Oc2nc(-c3cncc(C#N)c3)ccc2S(=N)(=O)C2CC2)c(C)n1 (stereo not drawn) [Compound I-248] | 1 to 10 | 1 to 10 | 1 to 10 | 
38 | Cc1cc(C)c(Oc2nc(-c3cncc(C#N)c3)ccc2S(C)(=N)=O)c(C)n1 (stereo not drawn) [Compound I-249] | ≥ 25 | < 25 | > 25 | 
39 | Cc1cnc(Oc2nc(-c3cncc(C#N)c3)ccc2NS(C)(=O)=O)c(C)c1 [Compound I-250] | ≥ 25 | ≥ 25 | > 25 | 
40 | Cc1cc(C2CC2)nc(C)c1Oc1nc(-c2cncc(C#N)c2)ccc1S(C)(=N)=O (stereo not drawn) [Compound I-251] | 10 to 25 | ≥ 25 | > 25 | 
41 | Cc1cc(C2CC2)nc(C)c1Oc1nc(-c2cncc(C#N)c2)ccc1NS(=O)(=O)C1CCC1 [Compound I-252] | 1 to 10 | ≥ 25 | < 1 | 
42 | Cc1cc(C)c(Oc2nc(-c3cncc(C#N)c3)ccc2NS(=O)(=O)C2CCC2)c(C)c1 [Compound I-253] | 1 to 10 | 1 to 10 | < 25 | 
43 | Cc1cc(C2CC2)nc(C)c1Oc1nc(-n2cnc(C#N)c2)ccc1NS(C)(=O)=O [Compound I-254] | < 1 | < 25 | < 1 | 
44 | Cc1cc(C2CC2)nc(C)c1Oc1nc(-n2ccc(C#N)n2)ccc1NS(C)(=O)=O [Compound I-255] | 1 to 10 | ≥ 25 | > 25 | 
45 | Cc1cc(C2CC2)nc(C)c1Oc1nc(-n2cc(C#N)cn2)ccc1NS(C)(=O)=O [Compound I-256] | < 1 | < 1 | > 25 | 
46 | Cc1cc(C)c(Oc2nc(-n3ccc(C#N)n3)ccc2NS(C)(=O)=O)c(C)c1 [Compound I-257] | 1 to 10 | ≥ 25 | < 25 | 
47 | Cc1cc(C)c(Oc2nc(-c3cncc(C#N)c3)ccc2S(N)(=O)=O)c(C)n1 [Compound I-258] | 10 to 25 | < 25 |  | 1 to 10
48 | Cc1cc(C)c(Oc2nc(-c3cncc(C#N)c3)cnc2NS(C)(=O)=O)c(C)n1 [Compound I-259] | 1 to 10 | ≥ 25 | < 25 | 
